The results in this text go back to ChEMBL document CHEMBL2029316, “Linker-based hemisuccinate derivatives of artemisinin: synthesis and antimalarial assessment against multidrug-resistant Plasmodium yoelii nigeriensis in mice” (J Med Chem, 2012).

Active and inactive are the calls of the source. The calls are words filed in the database; no cut-off is given here.

Broadly, the logP is a log measure of how a compound divides between an organic and an aqueous phase.

Data set [1] deals with Plasmodium yoelii nigeriensis. The data set is described as follows: Antimalarial activity against chloroquine-, mefloquine-, halofantrine-resistant Plasmodium yoelii nigeriensis blood stream schizonts infected in Swiss mouse assessed as disease cured mouse at 6 mg/kg, im administered once daily for 4 days measured on day 28. Also noted: dose 6 mg/kg. Format: functional, organism-based.

For data set [2], the system named is Plasmodium yoelii nigeriensis. The data set is described as follows: Antimalarial activity against chloroquine-, mefloquine-, halofantrine-resistant Plasmodium yoelii nigeriensis blood stream schizonts infected in Swiss mouse assessed as disease cured mouse at 48 mg/kg, im administered once daily for 4 days measured on day 28. In kind it is functional, organism-based. Also noted: dose 48 mg/kg.

Data set [3] relates to Plasmodium yoelii nigeriensis. The experiment in a line: Antimalarial activity against chloroquine-, mefloquine-, halofantrine-resistant Plasmodium yoelii nigeriensis infected in Swiss mouse assessed as protection from infection at 3 to 48 mg/kg, im administered once daily for 4 days measured on day 28 relative to artesunic acid. Format: functional. To be noted: dose mg/kg 3-48; route intramuscular.

Data set [4] deals with Plasmodium yoelii nigeriensis. The data set is described as follows: Antimalarial activity against chloroquine-, mefloquine-, halofantrine-resistant Plasmodium yoelii nigeriensis blood stream schizonts infected in Swiss mouse assessed as disease cured mouse at 24 mg/kg, im administered once daily for 4 days measured on day 28. In kind it is functional, organism-based. Also noted: dose 24 mg/kg.

Data set [5] deals with Plasmodium yoelii nigeriensis. The data set is described as follows: Antimalarial activity against chloroquine-, mefloquine-, halofantrine-resistant Plasmodium yoelii nigeriensis blood stream schizonts infected in Swiss mouse assessed as suppression of parasitemia at 24 mg/kg, im administered once daily for 4 days relative to control. To be noted: route intramuscular. Format: functional.

In data set [6] the test system is Plasmodium yoelii nigeriensis. The data set is described as follows: Antimalarial activity against chloroquine-, mefloquine-, halofantrine-resistant Plasmodium yoelii nigeriensis blood stream schizonts infected in Swiss mouse assessed as disease cured mouse at 12 mg/kg, im administered once daily for 4 days measured on day 28. Format: functional, organism-based. Also noted: dose 12 mg/kg.

The subject of data set [7] is Plasmodium yoelii nigeriensis. The experiment in a line: Antimalarial activity against chloroquine-, mefloquine-, halofantrine-resistant Plasmodium yoelii nigeriensis blood stream schizonts infected in Swiss mouse assessed as suppression of parasitemia at 48 mg/kg, im administered once daily for 4 days relative to control. In kind it is functional. As to conditions: route intramuscular.

The subject of data set [8] is Plasmodium yoelii nigeriensis. The data set is described as follows: Antimalarial activity against chloroquine-, mefloquine-, halofantrine-resistant Plasmodium yoelii nigeriensis blood stream schizonts infected in Swiss mouse assessed as suppression of parasitemia at 12 mg/kg, im administered once daily for 4 days relative to control. In kind it is functional. To be noted: route intramuscular.

Data set [9] has as its system Plasmodium yoelii nigeriensis. The experiment in a line: Antimalarial activity against chloroquine-, mefloquine-, halofantrine-resistant Plasmodium yoelii nigeriensis blood stream schizonts infected in Swiss mouse assessed as suppression of parasitemia at 6 mg/kg, im administered once daily for 4 days relative to control. Format: functional. As to conditions: route intramuscular.

The nature of data set [10]: Lipophilicity, log P of the compound. In kind it is physicochemical. As to conditions: octanol/water.
Data set [11] is described as follows: Drug degradation in aqueous NaHCO3 under ambient temperature within 48 hrs. In kind it is physicochemical. To be noted: buffer.
Data set [12] in a line: Drug degradation in aqueous Na2CO3 under ambient temperature within 48 hrs. In kind it is physicochemical. As to conditions: buffer.

Turning to `C[C@H]1[C@@H](OCCCCCCCCCCCCOC(=O)CCC(=O)O)O[C@@H]2O[C@@]3(C)CC[C@H]4[C@H](C)CC[C@@H]1[C@@]24OO3`, the result in [1] and in data set [6] was inactive. Also, the outcome in data set [2] and in data set [4] was Active. For the same compound, the “fold change (FC)” value in data set [3] is 2. Further, the Activity amounted to 100% in data set [5], 100% in data set [7], 71.27% in [8] and 57.09% in data set [9]. This compound gave a logP in data set [10] of 6.78.

For the compound `C[C@H]1[C@@H](OCCCCCCCCCCOC(=O)CCC(=O)O)O[C@@H]2O[C@@]3(C)CC[C@H]4[C@H](C)CC[C@@H]1[C@@]24OO3`, the Drug degradation result in [11] and in [12] was “Not Active” in each case. In addition, in [2], the result was Active. The Activity in data set [5] is on record as 100%; in [7], 100%; in [8], 98.18%. Further, the outcome in data set [6] was inactive. In data set [10], this compound displayed a logP of 5.95.

With `C[C@H]1[C@H](OC(=O)CCC(=O)O)O[C@@H]2O[C@@]3(C)CC[C@H]4[C@H](C)CC[C@@H]1[C@@]24OO3` [ARTESUNATE], the Drug degradation entry in data set [11] and in [12] was “Active” in each case. The result in [2] was Active. Moreover, the outcome in data set [4] and in data set [6] was inactive. Moreover, the values for the Activity in [5], in [7] and in data set [8] were 100%, 100% and 96.36%, respectively.
